The assay has as its target Calcium-activated potassium channel subunit alpha-1 (Homo sapiens) (UniProt Q12791). As to the kind of experiment: The compound was tested for maxi-K channel opening property at concentration of 20 uM, activity expressed as percentage of current.

Sequence of Calcium-activated potassium channel subunit alpha-1 (Homo sapiens) (Q12791 whole entry): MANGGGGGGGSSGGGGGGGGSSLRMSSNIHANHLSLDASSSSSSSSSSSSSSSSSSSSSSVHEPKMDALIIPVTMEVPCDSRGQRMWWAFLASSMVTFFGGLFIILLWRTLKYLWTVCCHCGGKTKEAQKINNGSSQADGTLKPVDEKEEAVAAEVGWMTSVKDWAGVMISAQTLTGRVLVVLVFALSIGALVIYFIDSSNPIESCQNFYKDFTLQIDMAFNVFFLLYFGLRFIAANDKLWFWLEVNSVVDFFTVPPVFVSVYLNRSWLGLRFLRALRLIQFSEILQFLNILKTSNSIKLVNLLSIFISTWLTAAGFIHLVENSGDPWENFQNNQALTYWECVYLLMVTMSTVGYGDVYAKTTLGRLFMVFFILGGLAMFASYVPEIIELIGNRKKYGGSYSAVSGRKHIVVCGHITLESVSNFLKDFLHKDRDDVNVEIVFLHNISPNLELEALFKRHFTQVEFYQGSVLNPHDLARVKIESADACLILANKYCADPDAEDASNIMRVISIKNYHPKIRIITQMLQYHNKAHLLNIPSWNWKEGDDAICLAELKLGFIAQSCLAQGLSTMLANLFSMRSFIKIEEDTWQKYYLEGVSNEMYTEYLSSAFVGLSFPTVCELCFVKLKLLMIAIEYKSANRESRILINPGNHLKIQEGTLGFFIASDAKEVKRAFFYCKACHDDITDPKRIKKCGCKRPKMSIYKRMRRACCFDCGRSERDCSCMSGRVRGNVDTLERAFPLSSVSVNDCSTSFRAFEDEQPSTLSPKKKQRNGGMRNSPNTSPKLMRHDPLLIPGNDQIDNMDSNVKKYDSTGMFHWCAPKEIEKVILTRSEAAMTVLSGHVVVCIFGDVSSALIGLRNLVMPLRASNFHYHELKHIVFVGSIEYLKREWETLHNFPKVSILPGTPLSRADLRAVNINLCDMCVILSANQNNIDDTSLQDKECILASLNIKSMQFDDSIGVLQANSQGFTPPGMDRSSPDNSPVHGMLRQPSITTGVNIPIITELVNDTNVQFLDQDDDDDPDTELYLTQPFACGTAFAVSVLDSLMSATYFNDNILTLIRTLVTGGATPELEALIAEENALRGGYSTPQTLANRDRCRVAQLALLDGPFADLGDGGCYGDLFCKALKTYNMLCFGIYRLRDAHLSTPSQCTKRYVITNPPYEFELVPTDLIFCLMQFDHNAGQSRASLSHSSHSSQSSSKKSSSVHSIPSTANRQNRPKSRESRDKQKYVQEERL

As for `CC(=O)Nc1ccc(O)c(C(=O)/C=C/c2ccccc2)c1`, the Maxi-K current, % of control was found to be 81.5%.

For `O=C(/C=C/c1ccccc1)c1ccccc1`, the Maxi-K current, % of control stood at 82.4%.

Turning to `O=C(CCc1ccc(O)cc1)c1c(O)cc(O)cc1O`, the Maxi-K current, % of control was found to be 120%.

As to `COc1cc(OC)c2c(=O)c(OC)c(-c3ccc(OC)c(OC)c3)oc2c1`, the Maxi-K current, % of control worked out at 94.6%.

Turning to `O=c1cc(-c2ccc(O)cc2)oc2cc(O)cc(O)c12`, the Maxi-K current, % of control amounted to 159%.

Turning to `O=c1c(O)c(-c2ccc(O)cc2)oc2cc(O)cc(O)c12`, the Maxi-K current, % of control is 167%.

For `O=c1cc(-c2ccccc2)oc2ccccc12`, the Maxi-K current, % of control is 103%.

As to `O=C(/C=C/c1cccc([N+](=O)[O-])c1)c1ccccc1O`, the Maxi-K current, % of control stood at 74.4%.

As to `O=c1[nH]c2cc(C(F)(F)F)ccc2n1-c1cc(Cl)ccc1O`, the Maxi-K current, % of control stood at 132%.

Source of the values: ChEMBL document CHEMBL1151609, “The discovery of novel openers of Ca2+-dependent large-conductance potassium channels: Pharmacophore search and physiological evaluation of flavonoids” (Bioorg Med Chem Lett, 1997).
